A value given as a limit tells only on which side of the number the result lay.

For test [1], the species on record is Mus musculus. Put plainly: Inhibition of Protein Phosphatase 2A (PP2A) partially purified from mouse brain. The settings on record: concentration not given here. Further details: concentration or dose not given beside the values. The format is tissue-based.
The species named for test [2] is Mus musculus. The experiment in a line: Compound was tested for inhibition of cantharidin-binding protein(CBP) phosphatase isolated from mouse liver. Set-up: concentration or dose not given beside the values. Conditions: concentration not given here.
A short description of test [3]: Compound was tested for inhibition of specific [3H]cantharidin binding to CBP. Further details: species or system Mus musculus.
Test [4] concerns the target Serine/threonine-protein phosphatase 2A 65 kDa regulatory subunit A alpha isoform (Mus musculus, UniProt Q76MZ3). The experiment in a line: Compound was tested for inhibitory concentration of Protein Phosphatase 2A (PP2A).
A short description of test [5]: Compound was tested for inhibition of specific [3H]cantharidin binding to CBP: Range= 200->100000. Set-up: species or system Mus musculus.
Test [6] is filed under the species Mus musculus. Put plainly: Compound was tested for inhibition of cantharidin-binding protein(CBP) phosphatase isolated from mouse liver: Range= 22-51. The settings on record: concentration not given here.
Test [7] is described as follows: Compound was tested for inhibition of specific [3H]cantharidin binding to CBP: Range= 10-50. Set-up: species or system Mus musculus.
The species entered for test [8] is Mus musculus. Put plainly: Compound was tested for inhibition of cantharidin-binding protein(CBP) phosphatase isolated from mouse liver: Range=92-95. The settings on record: concentration not given here.
Test [9] can be described thus: Compound was tested for inhibition of specific [3H]cantharidin binding to CBP: Range=4-8. Set-up: species or system Mus musculus.

Chain of Serine/threonine-protein phosphatase 2A 65 kDa regulatory subunit A alpha isoform (Q76MZ3 whole entry, canonical isoform): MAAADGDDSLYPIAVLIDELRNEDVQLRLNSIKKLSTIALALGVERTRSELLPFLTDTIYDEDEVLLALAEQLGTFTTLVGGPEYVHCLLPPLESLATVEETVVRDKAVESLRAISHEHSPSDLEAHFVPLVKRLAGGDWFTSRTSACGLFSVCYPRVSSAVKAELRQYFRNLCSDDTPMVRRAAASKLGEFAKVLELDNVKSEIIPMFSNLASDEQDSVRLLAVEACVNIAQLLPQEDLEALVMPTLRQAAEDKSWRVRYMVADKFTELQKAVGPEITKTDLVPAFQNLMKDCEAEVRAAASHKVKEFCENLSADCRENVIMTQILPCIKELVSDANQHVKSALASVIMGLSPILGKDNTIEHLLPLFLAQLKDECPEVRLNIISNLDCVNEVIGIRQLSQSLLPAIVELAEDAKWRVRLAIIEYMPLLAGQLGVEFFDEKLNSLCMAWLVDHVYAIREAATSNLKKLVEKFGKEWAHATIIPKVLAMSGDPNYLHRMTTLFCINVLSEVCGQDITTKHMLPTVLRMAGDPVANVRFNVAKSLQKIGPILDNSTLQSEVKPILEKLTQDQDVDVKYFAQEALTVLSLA

Regarding `O=C1OC(=O)[C@H]2[C@@H]1[C@H]1C=C[C@H]2C1` (stereo in doubt; 5), the inhibition in the test listed under Mus musculus [1] is 48.1%.
In the case of `O=C(O)C1C2C=CC(C2)C1C(=O)O` (stereo unspecified), the inhibition in the test listed under Mus musculus [1] is 17.2%.
The compound `CC1(C(=O)O)C2CCC(O2)C1(C)C(=O)O` (stereo unspecified) [CANTHARIDIC_ACID] showed an inhibition in the test filed under Mus musculus [2] of 95%. Moreover, the concentration for half-maximal inhibition (IC50) in test [3] is 4 µM.
Compound `O=C1OC(=O)C2C3CCC(O3)C12` (stereo unspecified) [DEMETHYL-CANTHARIDIN] came in with an IC50 in [4] of 70 µM. The same compound came in with an inhibition in the test filed under Mus musculus [1] of 88.3%.
Consider `CCOC(=O)C1CC2OC1C(C(=O)O)C2C(=O)O` (stereo unspecified), for which, in the test listed under Mus musculus [2], the inhibition is 0%. Besides, in test [5], the IC50 is greater than 100 µM.
Compound `COC(=O)C1CC2C=CC1C2` (stereo unspecified) yielded an inhibition in the test listed under Mus musculus [1] of 30.8%.
The same measure, in the same setting: next, `O=C(O)C1CC=CCC1C(=O)O` (stereo unspecified): 12.2%.
In the test filed under Mus musculus [6], `O=C(O)C1CC2OC1C(C(=O)O)C2C(=O)O` (stereo unspecified) yielded an inhibition of 51%. Also, in test [7], the IC50 came out at 0.05 µM.
Regarding `O=C1OC(=O)C2C3CCC(C3)C12` (stereo in doubt; 7), in the test listed under Mus musculus [1], the inhibition turned out to be 38.7%.
As for `N#CCC1CC2OC1C(C(=O)O)C2C(=O)O` (stereo unspecified), the inhibition in the test filed under Mus musculus [2] was found to be 0%. In addition, the IC50 in test [5] is greater than 100 µM.
On to `O=C(O)C1C2C=CC(O2)C1C(=O)O` (stereo unspecified), for which the concentration for half-maximal inhibition (IC50) in test [4] came out at 300 µM. Moreover, in the test listed under Mus musculus [1], the inhibition was determined as 80.3%.
Regarding `O=C(O)[C@@H]1[C@H](C(=O)O)[C@H]2CC[C@@H]1O2` [ENDOTHALL], in the test listed under Mus musculus [6], the inhibition is 51%. Further, in test [7], the half-maximal inhibitory concentration (IC50) was determined as 0.05 µM.
In the test listed under Mus musculus [1], `O=C(O)C1CC2C=CC1C2` (stereo unspecified) registered an inhibition of 3.8%.
As for `O=C1OC(=O)C2C3C=CC(O3)C12` (stereo unspecified), the IC50 in [4] came to 40 µM. In the test filed under Mus musculus [1], this compound showed an inhibition of 95.2%.
`CC12CCC(C)(O1)C(C(=O)O)C2C(=O)O` (stereo unspecified) came in with an inhibition in the test filed under Mus musculus [2] of 0%. For the same compound, in test [5], the half-inhibitory concentration (IC50) was greater than 100 µM.
The compound `O=C1OC(=O)[C@H]2[C@@H]1[C@H]1C=C[C@H]2C1` (stereo in doubt; 6) yielded an inhibition in the test filed under Mus musculus [1] of 48.8%.
In turn, `O=C1OC(=O)C2CC=CCC12` (stereo unspecified) gave an inhibition in the test filed under Mus musculus [1] of 24%.
Turning to `CC12C(=O)OC(=O)C1(C)C1CCC2O1` (stereo unspecified), the values for the inhibition in the test filed under Mus musculus [8] and in the test filed under Mus musculus [1] were 92% and 95%, respectively. For the same compound, the IC50 in [4] is 8 µM; in [9], 0.004 µM.
The compound `O=C1OC(=O)C23CCCC12C1CCC3O1` (stereo unspecified) displayed an inhibition in the test listed under Mus musculus [2] of 95%. The same compound had an IC50 in test [3] of 4 µM.
In the test listed under Mus musculus [1], `O=C1OC(=O)C2CCCCC12` (stereo unspecified) came in with an inhibition of 9.2%.
Compound `O=C1OC(=O)C2C3CCC(C3)C12` (stereo in doubt; 11) showed an inhibition in the test listed under Mus musculus [1] of 13.3%.
On to `CC1(C(=O)O)C2CCC(O2)C1C(=O)O` (stereo unspecified), for which the inhibition in the test filed under Mus musculus [6] amounted to 51%. In test [7], this compound gave a half-maximal inhibitory concentration (IC50) of 0.05 µM.

(Values after ChEMBL document CHEMBL1129781, “Inhibition of protein phosphatase 2A by cantharidin analogues” (Bioorg Med Chem Lett, 1996).)
